From US5445941A, “Method for screening anti-osteoporosis agents” (Eli Lilly and Company, priority 1993, dated 1995)
“Also recorded” adds a separate entry of the source. Structures can show the parent of a compound that is named as a salt. Where two headings read alike, the source gives them in different places.

Assays:
TGFβ-3 promoter [1] = assay: Comparative induction of reporter gene from TGFβ-3 promoter (pB-301, pRSVER, MG63) by raloxifene and related compounds; format: cell-based, human; details: for reporter gene expression: 0 M 0.61; for induction of reporter gene expression (in words): MG63 cells
uterotropic activity = details: ovariectomized rats; cited from earlier work
[2] = system: osteoblasts and osteoclasts; details: cited from earlier work
[3] = system: mesenchymal cells and epithelial cells; fibroblasts, macrophages and smooth muscle cells; details: cited from earlier work
[4] = system: human endometrial cancer cell line (Ishikawa); details: cited from earlier work
[5] = system: human endometrial cancer cell line (HEC-50); details: cited from earlier work
[6] = system: estrogen responsive elements; details: in vitro; cited from earlier work
[7] = system: TGFβ secretion by human fetal fibroblasts; details: absence of estrogen receptor; cited from earlier work
[8] = system: osteoblast enriched bone cell cultures; details: relative to TGFβ-1; cited from earlier work
[9] = cited from earlier work; for bone density (in words): breast cancer patients
TGFβ-2 promoter = assay: CAT reporter expression, TGFβ-2 promoter (pTGF-1), MG63 cells cotransfected with pRSVER
Procedure: (§1) Co-transfection experiments were performed in MG63 (human osteosarcoma) cells, using the ProFection Mammalian Transfection System (Promega). […] The cells were then refed with fresh 3:1 media containing 10% csFBS. Compounds to be evaluated for their ability to modulate reporter gene expression were added at the appropriate times and assayed as described below.
(§2) Cultures of MG63 cells were transiently co-transfected with pRSVER plasmid and either phTG12, pTGF-1, or pB2-499 using the ProFection system (Promega). For each transfected cell culture, DNA-containing calcium phosphate precipitates were added dropwise to each culture dish and mixed thoroughly in the media. The pH of the media was carefully maintained between pH 7.2 and pH 7.4. Transfected cell cultures were then incubated overnight in a 5% CO2 atmosphere at 37° C. For all cultures, the precipitate was removed after overnight incubation by aspirating the media from the culture dishes, followed by rinsing each dish twice with D-PBS. For each cotransfected cell line, the buffer was replaced with 10 ml fresh medium containing 10% csFBS and one of the following compositions:
(§3) a. 10 μl ethanol (hormone vehicle)=control;
(§4) b. 10 μl 17β-estradiol (Sigma) ("estradiol") at a concentration of 10^-4 M in ethanol;
(§5) d. 10 μl Tamoxifen (Sigma) at a concentration of 10^-4 M in ethanol.
(§6) After 24 h incubation with these hormonal preparations (or the vehicle control), cells were washed twice with D-PBS. The cells were then scraped from the culture dishes using a rubber policeman and 1 ml of D-PBS. Cells were collected by centrifugation at 8,000 rpm for 2 minutes in a tabletop centrifuge (MicroMax Model, IEC, Newark, N.Y.). The supernatant was removed and the cell pellets were resuspended in 150 μL of a 0.25M Tris-HCl solution (pH 7.8). Cells were lysed by three cycles of freezing in a dry ice/ethanol bath and thawing in a water bath at 37° C. water bath (for 3 minutes each cycle). Lysed cell preparations were centrifuged at 15,000 rpm for 5 minutes at 4° C. to remove cell debris. Supernatants containing the soluble cell lysate were transferred to a new set of tubes for assaying chloramphenicol acetyltransferase (CAT) activity.
(§7) Before performing CAT assays on such cell lysates, the protein content of each lysate was first determined using a commercially-available assay (BioRad Laboratories, Richmond, Calif.). […]

TGFβ-3 promoter [10] = assay: CAT reporter expression, TGFβ-3 promoter (pB-499), MG63 cells cotransfected with pRSVER
Procedure: as §1, §2, §3, §4, §5, §6, §7

TGFβ-1 = details: three months of treatment; cited from earlier work
TGFβ-2 mRNA = details: T-47D and MDA-MB-231; cited from earlier work
TGFβ-3 promoter [11] = assay: Dose response of TGFβ-3 promoter (pB-301) CAT induction in MG63 cells with pRSVER; details: for CAT activity: 24 h, vehicle 0.85
Procedure: For each group of twelve cultures, the particular estrogen or antiestrogen compound was tested in replicate cultures at […], varying in tenfold increments from 10^-9 M to 10^-5 M, as well as one set of replicate cultures treated with vehicle only (for a total of twelve cultures per experimental treatment). Hormones were dissolved in ethanol and applied to the cultures in media as described above. The four estrogens and antiestrogens tested were:
a. 17β-estradiol (Sigma Chemical Corp., St. Louis, Mo.);

TGFβ-1 promoter = assay: CAT reporter expression, TGFβ-1 promoter (phTG12), MG63 cells cotransfected with pRSVER
Procedure: as §1, §2, §3, §4, §5, §6
Before performing CAT assays on such cell lysates, the protein content of each lysate was first determined using a commercially-available assay (BioRad Laboratories, Richmond, Calif.). An amount of each cell lysate containing 100 μg total protein was then mixed with CAT assay buffer (0.4M Tris-HCl (pH 7.8)/ 0.5 mM acetyl-CoA (Boehringer Mannheim)/ 0.1 μCi D-threo-(dichloroacetyl-1,2-[^14 C]-chloramphenicol) for 15 hours. After this incubation, reactions were stopped by vigorously extracting the reaction mixture with 900 μL ethyl acetate. The organic and aqueous phases were separated by brief centrifugation at 14,000 rpm for 1 minute, and approximately 800 μL of the organic phase was transferred to a new set of tubes. Ethyl acetate was evaporated to concentrate the CAT-catalyzed reaction products.
Acetylated and unacetylated chloramphenicol species were resolved by thin layer chromatography using a mixture of 95:5 (v/v) chloroform:methanol as the ascending buffer.

[12] = Homo sapiens, MG-63, 24 h, read-out: Fold Ind.

O=C(c1ccc(OCCN2CCCC2)cc1)c1c(-c2ccc(O)cc2)sc2ccccc12 [LY113526, 2-(p-hydroxyphenyl)benzo[B]thien-3-YL p-[2-(1-pyrrolidinyl)ethoxy]phenyl ketone]
reporter gene expression (TGFβ-3 promoter [1]; 10^-5 M): 2.1 | reporter gene expression (TGFβ-3 promoter [1]; 10^-6 M): 2.0 | reporter gene expression (TGFβ-3 promoter [1]; 10^-7 M): 0.6 | reporter gene expression (TGFβ-3 promoter [1]; 10^-8 M): 0.7 | reporter gene expression (TGFβ-3 promoter [1]; 10^-9 M): 0.7 | in vivo uterotropic activity (in words) (uterotropic activity): anti-uterotropic

O=C(c1ccc(O)cc1)c1sc2ccccc2c1-c1ccccc1 [LY81099, p-hydroxyphenyl 3-phenylbenzo[B]thien-2-yl ketone]
reporter gene expression (TGFβ-3 promoter [1]; 10^-5 M): 2.3 | reporter gene expression (TGFβ-3 promoter [1]; 10^-6 M): 0.9 | reporter gene expression (TGFβ-3 promoter [1]; 10^-7 M): 0.7 | reporter gene expression (TGFβ-3 promoter [1]; 10^-8 M): 0.5 | reporter gene expression (TGFβ-3 promoter [1]; 10^-9 M): 0.6 | in vivo uterotropic activity (in words) (uterotropic activity): uterotropic

O=C(c1ccc(O)cc1)c1sc2ccc(O)cc2c1-c1ccccc1 [LY112676, (p-hydroxyphenyl) 5-hydroxy-3-phenylbenzo[B]thien-2-yl ketone]
reporter gene expression (TGFβ-3 promoter [1]; 10^-5 M): 3.8 | reporter gene expression (TGFβ-3 promoter [1]; 10^-6 M): 1.7 | reporter gene expression (TGFβ-3 promoter [1]; 10^-7 M): 0.5 | reporter gene expression (TGFβ-3 promoter [1]; 10^-8 M): 0.6 | reporter gene expression (TGFβ-3 promoter [1]; 10^-9 M): 0.6 | in vivo uterotropic activity (in words) (uterotropic activity): uterotropic

TGFβ
bone formation / osteoclast effects (in words) [2]: stimulate osteoblastic bone formation and to inhibit osteoclast formation and osteoclast activities | cell growth, biosynthesis and chemotaxis (in words) [3]: inhibits the growth of mesenchymal cells and epithelial cells; also recorded: induces biosynthesis of proteoglycans, fibronectins and plasminogen activator; also recorded: chemotactic for fibroblasts, macrophages and smooth muscle cells | cell division (in words) [4]: repressed division | mitogenic effect (in words) [5]: mitogenic

CC/C(=C(\c1ccc(O)cc1)c1ccc(OCCN(C)C)cc1)c1ccccc1 [hydroxytamixofen]
binding of estrogen receptor complex to estrogen responsive elements (in words) [6]: bind in vitro to DNA binding domains called estrogen responsive elements

CN(C)CCOc1ccc(/C(=C(/CCCl)c2ccccc2)c2ccccc2)cc1 [toremifene]
TGFβ secretion (in words) [7]: induce human fetal fibroblasts to secrete TGFβ

TGFβ-3: isoform of transforming growth factor β
mitogenesis, collagen synthesis and alkaline phosphatase activity (in words) [8]: three to five fold higher rate than TGFβ-1

CC/C(=C(\c1ccccc1)c1ccc(OCCN(C)C)cc1)c1ccccc1 [tamoxifen]
bone density (in words) [9]: appear to be restricted to the lumbar spine, with bone loss being reported in the radius in some breast cancer patients | bone density (in words) ([9]; listed as Tamoxifen): increase bone density in breast cancer patients | serum cholesterol (in words) ([9]; healthy women and women with breast cancer): reduce the growth the serum cholesterol | growth of breast tumors (in words) ([9]; human, in vivo): reduce the growth of breast tumors | serum concentration of LDLs (in words) ([9]; human, in vivo): reduce serum concentration of LDLs | weight gain (in words) ([9]; post-menopausal women): contribute to weight gain | fold induction at 0.1 µM (TGFβ-2 promoter; [12]): 2.6 | Act. (relative CAT activity) (TGFβ-2 promoter; TGFβ-2 promoter, 10 μl of 10^-4 M in 10 ml medium, 24 h, control 0.8): 2.0 | fold induction at 0.1 µM (TGFβ-3 promoter [10]; [12]): 2.6 | Act. (relative CAT activity) (TGFβ-3 promoter [10]; TGFβ-3 promoter, 10 μl of 10^-4 M in 10 ml medium, 24 h, control 0.7): 1.9 | TGFβ secretion (in words) [7]: induce human fetal fibroblasts to secrete TGFβ | induction of extracellular TGFβ-1 (in words) (TGFβ-1): correlated with induction of extracellular TGFβ-1 | TGFβ-2 mRNA expression (in words) (TGFβ-2 mRNA): did not exhibit the same effect | CAT activity (TGFβ-3 promoter [11]; 10^-5 M): 13.5 | CAT activity (TGFβ-3 promoter [11]; 10^-6 M): 2.9 | CAT activity (TGFβ-3 promoter [11]; 10^-7 M): 0.98 | CAT activity (TGFβ-3 promoter [11]; 10^-8 M): 1.2 | CAT activity (TGFβ-3 promoter [11]; 10^-9 M): 0.91 | TGFβ-3 promoter activation (in words) (TGFβ-3 promoter [11]; MG63 cells): activates the TGFβ-3 promoter only at high levels (i.e., greater than micromolar) | fold induction at 0.1 µM (TGFβ-1 promoter; [12]): 1.1 | Act. (relative CAT activity) (TGFβ-1 promoter; TGFβ-1 promoter, 10 μl of 10^-4 M in 10 ml medium, 24 h, control […]): 6.9

CCCCN(C)C(=O)CCCCCCCCCC[C@@H]1Cc2cc(O)ccc2[C@H]2CC[C@]3(C)[C@@H](O)CC[C@H]3[C@H]12 [ICI]
CAT activity (TGFβ-3 promoter [11]; 10^-5 M): 6.5 | CAT activity (TGFβ-3 promoter [11]; 10^-6 M): 15.2 | CAT activity (TGFβ-3 promoter [11]; 10^-7 M): 10.9 | CAT activity (TGFβ-3 promoter [11]; 10^-8 M): 0.88 | CAT activity (TGFβ-3 promoter [11]; 10^-9 M): 0.89 | EC50 (TGFβ-3 promoter [11]; Homo sapiens, MG-63, 24 h, read-out: ED50): 100 nM | TGFβ-3 promoter activation (in words) (TGFβ-3 promoter [11]; MG63 cells): much less active at high concentrations (10^-5 M)

O=C(c1ccc(OCCN2CCCCCC2)cc1)c1c(-c2ccc(O)cc2)sc2cc(O)ccc12 [LY139482, [4-[2-(hexahydro-1H-azepin-1-yl)ethoxy]phenyl][6-hydroxy-2-(4-hydroxyphenyl)benzo[B]thien-3-yl]methanone]
reporter gene expression (TGFβ-3 promoter [1]; 10^-5 M): 2.0 | reporter gene expression (TGFβ-3 promoter [1]; 10^-6 M): 2.5 | reporter gene expression (TGFβ-3 promoter [1]; 10^-7 M): 2.7 | reporter gene expression (TGFβ-3 promoter [1]; 10^-8 M): 2.5 | reporter gene expression (TGFβ-3 promoter [1]; 10^-9 M): 0.8 | in vivo uterotropic activity (in words) (uterotropic activity): anti-uterotropic

COc1ccc(C2=C(C(=O)c3ccc(OCCN4CCCC4)cc3)c3ccccc3CC2)cc1 [LY133314, [3,4-dihydro-2-(4-methoxyphenyl)-1-naphthanlenyl][4-[2-(1-pyrrolidinyl)ethoxy]phenyl]methanone, methanesulfonic acid salt]
reporter gene expression (TGFβ-3 promoter [1]; 10^-5 M): 1.0 | reporter gene expression (TGFβ-3 promoter [1]; 10^-6 M): 6.6 | reporter gene expression (TGFβ-3 promoter [1]; 10^-7 M): 3.1 | reporter gene expression (TGFβ-3 promoter [1]; 10^-8 M): 0.7 | reporter gene expression (TGFβ-3 promoter [1]; 10^-9 M): 0.7 | in vivo uterotropic activity (in words) (uterotropic activity): uterotropic

p-hydroxyphenyl3-(-hydroxyphenyl)benzo[B]thien-2-yl ketone [LY98005]
reporter gene expression (TGFβ-3 promoter [1]; 10^-5 M): 0.5 | reporter gene expression (TGFβ-3 promoter [1]; 10^-6 M): 0.4 | reporter gene expression (TGFβ-3 promoter [1]; 10^-7 M): 0.5 | reporter gene expression (TGFβ-3 promoter [1]; 10^-8 M): 0.5 | reporter gene expression (TGFβ-3 promoter [1]; 10^-9 M): 0.4 | induction of reporter gene expression (in words) (TGFβ-3 promoter [1]): no induction | in vivo uterotropic activity (in words) (uterotropic activity): inert in vivo

CC(C)(C)C(=O)Oc1ccc(-c2sc3cc(OC(=O)C(C)(C)C)ccc3c2C(=O)c2ccc(OCCN3CCCCC3)cc2)cc1 [LY177366, [6-(2,2-dimethyl-1-oxopropoxy)-2-[4-(2,2-dimethyl-1-oxopropoxy)phenyl]benzo[B]thien-3-yl][4-[2-1-piperidinyl)ethoxy]phenyl]methanone hydrochloride]
reporter gene expression (TGFβ-3 promoter [1]; 10^-5 M): 6.1 | reporter gene expression (TGFβ-3 promoter [1]; 10^-6 M): 7.9 | reporter gene expression (TGFβ-3 promoter [1]; 10^-7 M): 10.2 | reporter gene expression (TGFβ-3 promoter [1]; 10^-8 M): 7.9 | reporter gene expression (TGFβ-3 promoter [1]; 10^-9 M): 1.1 | induction of reporter gene expression (in words) (TGFβ-3 promoter [1]): most potent inducer | in vivo uterotropic activity (in words) (uterotropic activity): anti-uterotropic

O=C(c1ccc(OCCN2CCCCC2)cc1)c1c(-c2ccc(O)cc2)sc2cc(O)ccc12 [raloxifene]
ED50 (in words) (TGFβ-3 promoter [11]; MG63 cells): nanomolar concentrations
